One data set concerns RM1 tumor. Briefly: RM1 tumor growth in C57Bl/6 mice (LOFU, 17AAG). The class given is in vivo, mouse. As to conditions: for tumor volume: intraperitoneal, three times a week, untreated tumor 1879±98.65 mm^3. How it is done:
(§1) This protocol yielded an approximate in situ spatial-peak temporal-average acoustic intensity of 270 W/cm^2, resulting in estimated average infra-tumoral temperature elevation of 3.2° C. Post-treatment, there were no signs of normal tissue toxicity such as alopecia, thermal damage, or skin wounds. […] Control mice were injected with equal volume of the vehicle DMSO, which was used to solubilize 17AAG.
(§2) Tumor model and treatment; C57Bl/6 and BalbC nu/nu mice were injected subcutaneously with 1×10^5 RM-1 (murine prostate cancer cell line) and 1×10^6 PC3 (human prostate cancer cell line) cells on the flank, respectively. Approximately 10 days later, the tumor became palpable (3-5 mm in diameter), whereupon LOFU treatment was initiated. […] Palpable tumors were treated with LOFU every 3-4 days for five fractions administered over two weeks. Animals received 17AAG three times a week during this time. Tumor volume measurements were performed twice weekly using Vernier calipers along with simultaneous physical assessment of signs of systemic toxicity (malaise and diarrhea).

Data set [1] in a line: Toxicity and dose finding of 17AAG in mice. It counts as in vivo, mouse. How it is done:
as §1
Thus, these dose levels were selected for the current study. The goal was to combine two therapies that are nontoxic, albeit subtherapeutic, and examine whether the combination can be therapeutic. […] To detect the level of ER stress, the expression levels of ER chaperones, ERp44, ERp57, and ERp72 were quantitated among different treatment groups. ERp44 is responsible for oxidative protein folding. ERp57 is an ER resident thiol disulfide oxidoreductase while Erp72 is a disulfide isomerase. All these proteins participate in the protein folding machinery of the ER.
as §2
Kaplan-Meier Survival analysis: Mice survival/mortality in different treatment groups was analyzed by Kaplan-Meier as a function of radiation dose using Sigma-Plot and GraphPad Prism (version 4.0 for OS X, San Diego, CA, USA) software.

The test system of a further data set is TPSA23 tumor cells. Briefly: Clonogenic assay, TPSA23. The class given is cell-based, murine.
Data set [2] relates to human hepatocellular carcinoma cell lines (HepG2, Hep3B, Huh7). Briefly: Cell growth and cell death of human HCC cell lines (LOFU, WP1066). It counts as cell-based. Particulars: WP1066 added prior LOFU treatment.

Turning to `C=CCNC1=C2C[C@@H](C)C[C@H](OC)[C@H](O)[C@@H](C)/C=C(\C)[C@H](OC(N)=O)[C@@H](OC)/C=C\C=C(/C)C(=O)NC(=CC1=O)C2=O` [17AAG, 17-N-allylamino-17-demethoxygeldanamycinan], the “average estimated tumor growth slower compared to control group” value in the data set on RM1 tumor (17AAG 25 mg/kg body weight) is 9%. Besides, in the data set with RM1 tumor (17AAG 25 mg/kg body weight), the “interval within which all animals achieved tumor size 2000 mm^3” value lay in the range of 26 to 30 days. Besides, the results for the tumor volume with RM1 tumor (17AAG 50 mg/kg b.w.) and in the data set on RM1 tumor (17AAG 75 mg/kg b.w.) were 964 mm3 and 485±24.25 mm3, respectively. Further, in data set [1] (75 mg/kg of body weight, after 21 days of treatment, C57Bl/6 mice), the “death of mice (Kaplan Meier survival analysis)” value is 50%. For the same compound, the “low dose found to be nontoxic” value in data set [1] (Balb/c nude mice) amounted to 14 mg/kg; in data set [1] (C57Bl/6 mice), 25 mg/kg. Also, the “normal tissue toxic effect” value in data set [1] (low dose 17AAG 25 mg/kg body weight) was “did not show any normal tissue toxic effect”.
As for `CNC(=O)c1ccc(N2C(=S)N(c3cnc(C#N)c(C(F)(F)F)c3)C(=O)C23CCC3)cc1F` [apalutamide], the “clonogenicity (colonies)” value with TPSA23 tumor cells (5 μM apalutamide in combination with LOFU, vs apalutamide or LOFU alone) was “significantly fewer colonies”. Further, the figures for the clonogenicity entry in the data set on TPSA23 tumor cells (10 μM apalutamide alone) and in the data set with TPSA23 tumor cells (10 μM apalutamide in combination with LOFU) were “significant reduction in clonogenicity” and “still more effective”, respectively.
On to `C[C@H](NC(=O)/C(C#N)=C/c1cccc(Br)n1)c1ccccc1` [WP1066], for which, in data set [2], the inducing cell death result is listed as “superior effect on inducing cell death”.
